From patent US7897614B2, “Preventive agent/remedial agent for constipation predominant IBS” (Mitsubishi Tanabe Pharma Corporation, priority 2001, dated 2011)
Entries after “also recorded” stand apart in the source; their conditions may differ.

How the values were obtained:
[1] = system: patients suffering from constipation predominant IBS; experiment: Double blind clinical test in patients with constipation predominant IBS (Rome II criteria); assay type: in vivo, human
Text: Clinical effects of the medicament of the present invention on patients suffering from constipation predominant IBS were studied (in accordance with Rome II diagnosis criteria).
The test conducted here was a double blind test by two groups. […] Administration period consisted of 2-week screening and 4 week treatment. […] In addition, an ameliorating ratio of each symptom, that is, stool state, difficulty in defecation, feeling of residual stool after defecation, abdominal bloating, abdominal discomfort and abdominal pain is shown in FIG. 1

IBS patients = conditions: score 2 = marginal improvement, 3 = small improvement; Br J Pharm Pract 1987; cited from earlier work
[2] = 0.2 mg twice a day, 4 week treatment, 9 patients in the group

O=C(N[C@H]1CN2CCC1CC2)c1cnc2ccsc2c1O [the medicament of the present invention, (R)-N-(1-azabicyclo[2.2.2]oct-3-yl)-7-hydroxythieno[3,2-b]-pyridine-6-carboxamide]
Ameliorating ratio of each symptom (stool state, difficulty in defecation, residual stool feeling, abdominal bloating, discomfort, pain), FIG. 1 ([1]; 0.2 mg group compared with placebo group): exhibited an ameliorating ratio exceeding the placebo group in any symptoms
Total impression of the patients: Aggravated (number of patients) [1, 2]: 0
Total impression of the patients: Highly effective (number of patients) [1, 2]: 0
Total impression of the patients: Moderately effective (number of patients) [1, 2]: 5
Total impression of the patients: Not effective (number of patients) [1, 2]: 2
Total impression of the patients: Slightly effective (number of patients) [1, 2]: 2
Effectiveness relative to the placebo group ([1]; 0.2 mg twice a day, 4 weeks): about twice; also recorded: about two fold
Ratio of effectiveness (total percentage of highly effective and moderately effective cases) ([1]; 0.2 mg twice a day, 4 weeks, placebo group 30%): 56%

sennoside
Mean subjective score (IBS patients): 2.7
